Data as given in patent US10350271B2, “Lipidated peptides for lowering blood glucose” (USTAV ORGANICKE CHEMIE A BIOCHEMIE AKADEMIE VED CR, V.V.I., priority 2014, dated 2019).
Numbered stars: 1 amine (or outer) side, 2 acyl side, 3 side chain; on linkers, the order of the positions; unused ones are H or OH. Square brackets hold non-standard residues; d marks the D form. Side chains are listed from the residue outwards. Ends that are not written are not given here. Peptide text beside a SMILES is read from it. * marks the point of attachment. TTDA(Palmitoyl) = CCCCCCCCCCCCCCCC(=O)NCCCOCCOCCOCCCN*; Phe(F5) = N[C@@H](Cc1c(F)c(F)c(F)c(F)c1F)C(=O)O; Palmitoyl = CCCCCCCCCCCCCCCC(=O)*; Myristoyl = CCCCCCCCCCCCCC(=O)*; Suc = O=C(CCC(=O)[*:2])[*:1]; Nle = CCCC[C@H](N)C(=O)O; Octanoyl = CCCCCCCC(=O)*

Legend:
C57BL/6 mice = experiment: Food intake in fasted mice after SC injection; type: in vivo; conditions: for Food intake in mice % of saline-treated group: 5 mg/kg SC, 45 min after injection
In short: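 Overnight-fasted animals (food removed 17 h before dosing, water available) in individual cages got saline, PrRP or lipidated PrRP analogs SC at 1-10 mg/kg.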

rat PrRP receptor = target: T1, rat PrRP receptor (Rattus norvegicus, UniProt Q64121); experiment: Competitive binding in RC-4B/C rat pituitary cells (125I-rat PrRP31); conditions: for Displacement of rat 125I-PrRP binding: rat PrRP receptor; for % of PrRP31, RC-4B/C rat pituitary cells: affinity relative to PrRP31
T1 construct: host or cells: RC-4B/C rat pituitary cell line
T1 sequence (Q64121 1-370): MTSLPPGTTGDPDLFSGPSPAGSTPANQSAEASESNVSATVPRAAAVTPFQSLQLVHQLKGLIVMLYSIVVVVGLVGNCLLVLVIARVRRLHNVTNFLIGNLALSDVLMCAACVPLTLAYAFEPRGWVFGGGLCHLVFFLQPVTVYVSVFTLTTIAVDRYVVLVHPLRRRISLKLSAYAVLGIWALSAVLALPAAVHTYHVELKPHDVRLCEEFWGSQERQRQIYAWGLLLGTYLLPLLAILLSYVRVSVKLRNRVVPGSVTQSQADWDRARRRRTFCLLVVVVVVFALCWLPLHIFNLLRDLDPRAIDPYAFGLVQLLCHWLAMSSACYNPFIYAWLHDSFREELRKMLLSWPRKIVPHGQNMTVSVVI
In short: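 Intact rat pituitary RC-4B/C cells incubated 60 min at room temperature with […] rat 125I-PrRP31 and unlabeled analog (10^−11 to 10^−4 mol·l^−1) in HEPES pH 7.4 buffer. Cell-bound radioactivity γ-counted after NaOH lysis; one-site competition fit.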

[1] = target: T2, human PrRP receptor GPR10 (Homo sapiens, UniProt P49683); experiment: Competitive binding in CHO cells transfected with human GPR10 (human 125I-PrRP31); conditions: for % of PrRP31, GPR10 human receptor transfected in CHO cells: affinity relative to PrRP31; for Displacement of human 125I-PrRP binding: human GPR10 receptor; for Ki: CHO cells, human 125I-PrRP31, read-out: Ki, GPR10 human receptor transfected in CHO cells
T2 construct: host or cells: CHO cells
T2 sequence (P49683 1-370): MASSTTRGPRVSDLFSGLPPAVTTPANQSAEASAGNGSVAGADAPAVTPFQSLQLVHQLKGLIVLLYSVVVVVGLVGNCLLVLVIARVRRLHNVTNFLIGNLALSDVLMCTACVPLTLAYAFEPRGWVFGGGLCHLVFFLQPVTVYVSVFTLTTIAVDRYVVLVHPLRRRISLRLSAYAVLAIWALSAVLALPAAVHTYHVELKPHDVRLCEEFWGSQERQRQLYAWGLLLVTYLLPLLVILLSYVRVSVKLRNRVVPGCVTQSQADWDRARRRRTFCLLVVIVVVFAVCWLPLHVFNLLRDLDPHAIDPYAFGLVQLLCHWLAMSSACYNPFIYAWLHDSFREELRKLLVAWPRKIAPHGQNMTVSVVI
In short: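 GPR10-transfected CHO cells (40-80 thousand/well) incubated 60 min at room temperature with 5×10^-11 mol·l^-1 human 125I-PrRP31 and unlabeled analog at 10^-11 to 10^-4 mol·l^-1 in Tris binding buffer pH 7.4. Cells solubilized in 0.1 mol/l NaOH, γ-counted; one-site nonlinear regression fit.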

Compound	Displacement of rat 125I-PrRP binding (rat PrRP receptor; RC-4B/C cells)	% of PrRP31, RC-4B/C rat pituitary cells (rat PrRP receptor) [%]	% of PrRP31, GPR10 human receptor transfected in CHO cells [1] [%]	Displacement of human 125I-PrRP binding [1]	Ki [1] [nM]	Binding affinity (rat PrRP receptor; RC-4B/C cells, statements referring to Table 2)	Ki (rat PrRP receptor; RC-4B/C cells, displacement of 125I-rat PrRP31, read-out: Ki, RC-4B/C rat pituitary cells ^25I-rat PrRP31) [nM]	Food intake in mice % of saline-treated group (C57BL/6 mice) [%]	Effect on food intake in mice (C57BL/6 mice; SC)
CCCCCCCCCCCCCC(=O)N[C@H](C(=O)N1CCC[C@H]1C(=O)N[C@@H](CC(=O)O)C(=O)N[C@H](C(=O)N[C@@H](CC(N)=O)C(=O)N1CCC[C@H]1C(=O)N[C@@H](C)C(=O)N[C@@H](Cc1c[nH]c2ccccc12)C(=O)N[C@@H](Cc1ccc(O)cc1)C(=O)N[C@@H](C)C(=O)N[C@@H](CO)C(=O)N[C@@H](CCCNC(=N)N)C(=O)NCC(=O)N[C@H](C(=O)N[C@@H](CCCNC(=N)N)C(=O)N1CCC[C@H]1C(=O)N[C@H](C(=O)NCC(=O)N[C@@H](CCCNC(=N)N)C(=O)N[C@@H](Cc1ccccc1)C(N)=O)C(C)C)[C@@H](C)CC)[C@@H](C)CC)[C@@H](C)O [Analog 2] (Myristoyl-TPDINPAWYASRGIRPVGRF-NH2)	nmol·l^−1 range	1027	90	nmol·l^−1 range	–	–	–	10	–
CCCCCCCCCCCCCCCC(=O)N[C@@H](CO)C(=O)N[C@@H](CCCNC(=N)N)C(=O)N[C@@H](C)C(=O)N[C@@H](Cc1c[nH]cn1)C(=O)N[C@@H](CCC(N)=O)C(=O)N[C@@H](Cc1c[nH]cn1)C(=O)N[C@@H](CO)C(=O)N[C@@H](CCCC)C(=O)N[C@@H](CCC(=O)O)C(=O)N[C@H](C(=O)N[C@@H](CCCNC(=N)N)C(=O)N[C@H](C(=O)N1CCC[C@H]1C(=O)N[C@@H](CC(=O)O)C(=O)N[C@H](C(=O)N[C@@H](CC(N)=O)C(=O)N1CCC[C@H]1C(=O)N[C@@H](C)C(=O)N[C@@H](Cc1c[nH]c2ccccc12)C(=O)N[C@@H](Cc1ccc(O)cc1)C(=O)N[C@H](C(=O)NCC(=O)N[C@@H](CCCNC(=N)N)C(=O)NCC(=O)N[C@H](C(=O)N[C@@H](CCCNC(=N)N)C(=O)N1CCC[C@H]1C(=O)N[C@H](C(=O)NCC(=O)N[C@@H](CCCNC(=N)N)C(=O)N[C@@H](Cc1c(F)c(F)c(F)c(F)c1F)C(N)=O)C(C)C)[C@@H](C)CC)[C@@H](C)O)[C@@H](C)CC)[C@@H](C)O)[C@@H](C)O [Analog 22] (Palmitoyl-SRAHQHS[Nle]ETRTPDINPAWYTGRGIRPVGR[Phe(F5)]-NH2)	–	966	203	–	–	–	–	41	–
CC[C@H](C)[C@H](NC(=O)[C@H](CCCNC(=N)N)NC(=O)[C@@H]1CCCN1C(=O)[C@@H](NC(=O)CNC(=O)[C@@H](CCCNC(=N)N)NC(=O)[C@H](N)Cc1ccccc1)C(C)C)C(=O)NCC(=O)N[C@@H](CCCNC(=N)N)C(=O)NCC(=O)N[C@H](C(=O)N[C@@H](Cc1ccc(O)cc1)C(=O)N[C@@H](Cc1c[nH]c2ccccc12)C(=O)N[C@@H](C)C(=O)N1CCC[C@H]1C(=O)N[C@@H](CC(N)=O)C(=O)N[C@H](C(=O)N[C@@H](CC(=O)O)C(=O)N1CCC[C@H]1C(=O)N[C@H](C(N)=O)[C@@H](C)O)[C@@H](C)CC)[C@@H](C)O [Analog 25] (H-[dF][dR]GVPRIGRGTYWAPNIDPT-NH2)	–	0.09	0.06	–	–	very low binding affinity	–	–	no effect
CCCC[C@H](NC(=O)[C@H](CO)NC(=O)[C@H](Cc1c[nH]cn1)NC(=O)[C@H](CCC(N)=O)NC(=O)[C@H](Cc1c[nH]cn1)NC(=O)[C@H](C)NC(=O)[C@H](CCCNC(=N)N)NC(=O)[C@@H](N)CO)C(=O)N[C@@H](CCC(=O)O)C(=O)N[C@H](C(=O)N[C@@H](CCCNC(=N)N)C(=O)N[C@H](C(=O)N1CCC[C@H]1C(=O)N[C@@H](CC(=O)O)C(=O)N[C@H](C(=O)N[C@@H](CC(N)=O)C(=O)N1CCC[C@H]1C(=O)N[C@@H](C)C(=O)N[C@@H](Cc1c[nH]c2ccccc12)C(=O)N[C@@H](Cc1ccc(O)cc1)C(=O)N[C@H](C(=O)NCC(=O)N[C@@H](CCCNC(=N)N)C(=O)NCC(=O)N[C@H](C(=O)N[C@@H](CCCNC(=N)N)C(=O)N1CCC[C@H]1C(=O)N[C@H](C(=O)NCC(=O)N[C@@H](CCCNC(=N)N)C(=O)N[C@@H](Cc1ccccc1)C(N)=O)C(C)C)[C@@H](C)CC)[C@@H](C)O)[C@@H](C)CC)[C@@H](C)O)[C@@H](C)O [Analog 3] (H-SRAHQHS[Nle]ETRTPDINPAWYTGRGIRPVGRF-NH2)	–	385	203	–	–	–	–	100	–
CCCCCCCC(=O)N[C@H](C(=O)N1CCC[C@H]1C(=O)N[C@@H](CC(=O)O)C(=O)N[C@H](C(=O)N[C@@H](CC(N)=O)C(=O)N1CCC[C@H]1C(=O)N[C@@H](C)C(=O)N[C@@H](Cc1c[nH]c2ccccc12)C(=O)N[C@@H](Cc1ccc(O)cc1)C(=O)N[C@@H](C)C(=O)N[C@@H](CO)C(=O)N[C@@H](CCCNC(=N)N)C(=O)NCC(=O)N[C@H](C(=O)N[C@@H](CCCNC(=N)N)C(=O)N1CCC[C@H]1C(=O)N[C@H](C(=O)NCC(=O)N[C@@H](CCCNC(=N)N)C(=O)N[C@@H](Cc1ccccc1)C(N)=O)C(C)C)[C@@H](C)CC)[C@@H](C)CC)[C@@H](C)O [Analog 39] (Octanoyl-TPDINPAWYASRGIRPVGRF-NH2)	nmol·l^−1 range	530	201	nmol·l^−1 range	1.94 ± 0.32	–	0.93 ± 0.23	100	–

Continued, in another order:

Displacement of rat 125I-PrRP binding (rat PrRP receptor; RC-4B/C cells)	% of PrRP31, RC-4B/C rat pituitary cells (rat PrRP receptor) [%]	% of PrRP31, GPR10 human receptor transfected in CHO cells [1] [%]	Displacement of human 125I-PrRP binding [1]	Ki [1] [nM]	Binding affinity (rat PrRP receptor; RC-4B/C cells, statements referring to Table 2)	Ki (rat PrRP receptor; RC-4B/C cells, displacement of 125I-rat PrRP31, read-out: Ki, RC-4B/C rat pituitary cells ^25I-rat PrRP31) [nM]	Compound	Food intake in mice % of saline-treated group (C57BL/6 mice) [%]	Effect on food intake in mice (C57BL/6 mice; SC)
–	143	70	–	5.56 ± 0.7	–	–	TPDINPAWYTGRGIRPVGRF-NH2 [Rat PrRP20, reference compound]	100	–
–	575	103	–	–	–	–	CCCCCCCCCCCCCCCC(=O)NCCCOCCOCCOCCCNC(=O)CCC(=O)NCCCC[C@H](NC(=O)[C@@H](NC(=O)[C@H](CCC(=O)O)NC(=O)[C@H](CCSC)NC(=O)[C@H](CO)NC(=O)[C@H](Cc1c[nH]cn1)NC(=O)[C@H](CCCNC(=N)N)NC(=O)[C@H](Cc1c[nH]cn1)NC(=O)[C@@H](NC(=O)[C@H](CCC(=O)O)NC(=O)[C@@H](N)CO)[C@@H](C)O)[C@@H](C)CC)C(=O)N[C@H](C(=O)N1CCC[C@H]1C(=O)N[C@@H](CC(=O)O)C(=O)N[C@H](C(=O)N[C@@H](CC(N)=O)C(=O)N1CCC[C@H]1C(=O)N[C@@H](C)C(=O)N[C@@H](Cc1c[nH]c2ccccc12)C(=O)N[C@@H](Cc1ccc(O)cc1)C(=O)N[C@@H](C)C(=O)N[C@@H](CO)C(=O)N[C@@H](CCCNC(=N)N)C(=O)NCC(=O)N[C@H](C(=O)N[C@@H](CCCNC(=N)N)C(=O)N1CCC[C@H]1C(=O)N[C@H](C(=O)NCC(=O)N[C@@H](CCCNC(=N)N)C(=O)N[C@@H](Cc1ccccc1)C(N)=O)C(C)C)[C@@H](C)CC)[C@@H](C)CC)[C@@H](C)O [Analog 58] (H-SETHRHSMEIK([Suc-TTDA(Palmitoyl)])TPDINPAWYASRGIRPVGRF-NH2; N-terminus assumed)	7	–
